Key:
Format in all cases: in vivo
[1] = test system: Orchid thrips (Dichromothrips corbetti); experiment: Action on orchid thrips (Dichromothrips corbetti), floral-immersion technique; settings: adult thrips, mortality 72 hours after treatment, read-out: mortality in comparison with untreated controls
Description: Dichromothrips corbetti adults used for bioassay were obtained from a colony maintained continuously under laboratory conditions. For testing purposes, the test compound is diluted in a 1:1 mixture of acetone:water (vol:vol), plus Kinetic® HV at a rate of 0.01% v/v.
Thrips potency of each compound was evaluated by using a floral-immersion technique. All petals of individual, intact orchid flowers were dipped into treatment solution and allowed to dry in Petri dishes. Treated petals were placed into individual re-sealable plastic along with about 20 adult thrips. All test arenas were held under continuous light and a temperature of about 28° C. for duration of the assay. After 3 days, the numbers of live thrips were counted on each petal. The percent mortality was recorded 72 hours after treatment.

[2] = test system: yellow fever mosquito (Aedes aegypti); experiment: whole plant or invertebrate; settings: 48 h, larval mortality visually assessed after 2 days, read-out: mortality in comparison with untreated controls
Description: For evaluating control of yellow fever mosquito (Aedes aegypti) the test unit consisted of 96-well-microtiter plates containing 200 μl of tap water per well and 5-15 freshly hatched A. aegypti larvae.
The active compounds were formulated using a solution containing 75% (v/v) water and 25% (v/v) DMSO. Different concentrations of formulated compounds or mixtures were sprayed onto the insect diet at 2.5 μl, using a custom built micro atomizer, at two replications.
After application, microtiter plates were incubated at 28±1° C., 80±5% RH for 2 days. Larval mortality was then visually assessed.

[3] = test system: tobacco budworm (Heliothis virescens); experiment: Action on tobacco budworm (Heliothis virescens), 96-well microtiter plate diet test; settings: 120 h, egg and larval mortality after 5 days, read-out: mortality in comparison with untreated controls
Description: For evaluating control of tobacco budworm (Helliothis virescens) the test unit consisted of 96-well-microtiter plates containing an insect diet and 15-25 H. virescens eggs.
The compounds were formulated using a solution containing 75% v/v water and 25% v/v DMSO. Different concentrations of formulated compounds were sprayed onto the insect diet at 10 μl, using a custom built micro atomizer, at two replications.
After application, microtiter plates were incubated at about 28±1° C. and about 80±5% relative humidity for 5 days. Egg and larval mortality was then visually assessed.

[4] = test system: boll weevil (Anthonomus grandis); experiment: Action on boll weevil (Anthonomus grandis), 96-well microtiter plate diet test; settings: 120 h, egg and larval mortality after 5 days, read-out: mortality in comparison with untreated controls
Description: For evaluating control of boll weevil (Anthonomus grandis) the test unit consisted of 96-well-microtiter plates containing an insect diet and 5-10 A. grandis eggs.
The compounds were formulated using a solution containing 75% v/v water and 25% v/v DMSO. Different concentrations of formulated compounds were sprayed onto the insect diet at 5 μl, using a custom built micro atomizer, at two replications.
After application, microtiter plates were incubated at about 25±1° C. and about 75±5% relative humidity for 5 days. Egg and larval mortality was then visually assessed.

[5] = test system: Southern Armyworm (Spodoptera eridania), 2nd Instar Larvae; experiment: Action on southern armyworm (Spodoptera eridania), 2nd instar larvae, sprayed lima bean plants; settings: 96 h, 2nd instar larvae on lima bean, 4 days after treatment, read-out: mortality in comparison with untreated controls
Description: The active compounds were formulated by a Tecan liquid handler in 100% cyclohexanone as a 10,000 ppm solution supplied in tubes. The 10,000 ppm solution was serially diluted in 100% cyclohexanone to make interim solutions. These served as stock solutions for which final dilutions were made by the Tecan in 50% acetone:50% water (v/v) into 10 or 20 ml glass vials. A nonionic surfactant (Kinetic®) was included in the solution at a volume of 0.01% (v/v). The vials were then inserted into an automated electrostatic sprayer equipped with an atomizing nozzle for application to plants/insects.
Lima bean plants (variety Sieva) were grown 2 plants to a pot and selected for treatment at the 1st true leaf stage. Test solutions were sprayed onto the foliage by an automated electrostatic plant sprayer equipped with an atomizing spray nozzle. The plants were dried in the sprayer fume hood and then removed from the sprayer. Each pot was placed into perforated plastic bags with a zip closure. About 10 to 11 armyworm larvae were placed into the bag and the bags zipped closed. Test plants were maintained in a growth room at about 250C and about 20-40% relative humidity for 4 days, avoiding direct exposure to fluorescent light (24 hour photoperiod) to prevent trapping of heat inside the bags. Mortality and reduced feeding were assessed 4 days after treatment, compared to untreated control plants.

[6] = test system: Diamond Back Moth (Plutella xylostella); experiment: Action on diamond back moth (Plutella xylostella), cabbage leaf dip; settings: foliar, 3rd instar larvae on dipped cabbage leaves, 72 hours after treatment, read-out: mortality in comparison with untreated controls
Description: The active compound is dissolved at the desired concentration in a mixture of 1:1 (vol:vol) distilled water:acetone. Surfactant (Kinetic® HV) is added at a rate of 0.01% (vol/vol).The test solution is prepared at the day of use.
Leaves of cabbage were dipped in test solution and air-dried. Treated leaves were placed in petri dishes lined with moist filter paper and inoculated with ten 3rd instar larvae. Mortality was recorded 72 hours after treatment. Feeding damages were also recorded using a scale of 0-100%.

Row | Structure (SMILES) | mortality at 500 ppm [1] | mortality at 800 ppm [2] | mortality at 800 ppm [3] | mortality at 800 ppm [4] | mortality at 300 ppm [5] | mortality at 500 ppm [6]
1 | CC(/C=N/N=C1\SCC(=O)N1c1ccccc1C(C)C)=C\c1cnc(N(C)c2ccc(OC(F)(F)F)cc2)c(N(C)C)c1 [Compound C-9, (2Z)-2-[(E)-[(E)-3-[5-(dimethylamino)-6-[N-methyl-4-(trifluoromethoxy)anilino]-3-pyridyl]-2-methyl-prop-2-enylidene]hydrazono]-3-(2-isopropylphenyl)thiazolidin-4-one] | ≥ 75% | ≥ 75% | ≥ 75% | ≥ 75% | ≥ 75% | ≥ 75%
2 | CC(C)c1ccccc1NC(=S)N/N=C/COc1cnc(N(C)c2ccc(OC(F)(F)F)cc2)nc1 [Compound C-18, 1-(2-isopropylphenyl)-3-[(E)-2-[2-[N-methyl-4-(trifluoromethoxy)anilino]pyrimidin-5-yl]oxyethylideneamino]thiourea] | – | – | – | – | ≥ 75% | ≥ 75%
3 | Cc1cc(N(C)c2ccc(OC(F)(F)F)cc2)nc(C)c1OC/C=N/N=C1\SCC(=O)N1c1ccccc1C(C)C [Compound C-31, (2Z)-2-[(E)-2-[[2,4-dimethyl-6-[N-methyl-4-(trifluoromethoxy)anilino]-3-pyridyl]oxy]ethylidenehydrazono]-3-(2-isopropylphenyl)thiazolidin-4-one] | – | ≥ 75% | ≥ 75% | ≥ 75% | ≥ 75% | ≥ 75%
4 | Cc1nc(N(C)c2ccc(OC(F)(F)F)cc2)ncc1CC(C)/C=N/N=C1\SCC(=O)N1c1ccccc1C(C)C (stereo not shown) [Compound C-24, (2Z)-3-(2-isopropylphenyl)-2-[(E)-[2-methyl-3-[4-methyl-2-[N-methyl-4-(trifluoromethoxy)anilino]pyrimidin-5-yl]propylidene]hydrazono]thiazolidin-4-one] | – | – | ≥ 75% | – | – | ≥ 75%
5 | Cc1cc(N(C)c2ccc(OC(F)(F)F)cc2)nc(C)c1OC/C=N/NC(=S)Nc1ccccc1C(C)C [Compound C-30, 1-[(E)-2-[[2,4-dimethyl-6-[N-methyl-4-(trifluoromethoxy)anilino]-3-pyridyl]oxy]ethylideneamino]-3-(2-isopropylphenyl)thiourea] | – | – | ≥ 75% | – | – | ≥ 75%
6 | CC(/C=N/N=C1\SCC(=O)N1c1ccccc1C(C)C)Oc1ccc(N(C)c2ccc(OC(F)(F)F)cc2)nn1 (stereo not shown) [Compound C-28, (2Z)-3-(2-isopropylphenyl)-2-[(E)-2-[6-[N-methyl-4-(trifluoromethoxy)anilino]pyridazin-3-yl]oxypropylidenehydrazono]thiazolidin-4-one] | – | – | – | – | – | ≥ 75%
7 | CC(/C=N/N=C1\SCC(=O)N1c1ccccc1C(C)C)Oc1cnc(N(C)c2ccc(OC(F)(F)F)cc2)nc1 (stereo not shown) [Compound C-21, (2Z)-3-(2-isopropylphenyl)-2-[(E)-2-[2-[N-methyl-4-(trifluoromethoxy)anilino]pyrimidin-5-yl]oxypropylidenehydrazono]thiazolidin-4-one] | – | – | – | – | – | ≥ 75%
8 | CC(C)c1ccccc1N1C(=O)CS/C1=N\N=C\COc1cnc(N(C)c2ccc(OC(F)(F)F)cc2)nc1 [Compound C-19, (2Z)-3-(2-isopropylphenyl)-2-[(E)-2-[2-[N-methyl-4-(trifluoromethoxy)anilino]pyrimidin-5-yl]oxyethylidenehydrazono]thiazolidin-4-one] | – | – | – | – | ≥ 75% | ≥ 75%
9 | CC(C)c1ccccc1N1C(=O)CS/C1=N\N=C\C(=O)Nc1cnc(N(C)c2ccc(OC(F)(F)F)cc2)nc1 [Compound C-11, (2E)-2-[(Z)-[3-(2-isopropylphenyl)-4-oxo-thiazolidin-2-ylidene]hydrazono]-N-[2-[N-methyl-4-(trifluoromethoxy)anilino]pyrimidin-5-yl]acetamide] | – | – | ≥ 75% | – | ≥ 75% | ≥ 75%
10 | CC(C)c1ccccc1NC(=S)N/N=C/C(=O)Nc1cnc(N(C)c2ccc(OC(F)(F)F)cc2)nc1 [Compound C-13, (2E)-2-[(2-isopropylphenyl)carbamothioylhydrazono]-N-[2-[N-methyl-4-(trifluoromethoxy)anilino]pyrimidin-5-yl]acetamide] | – | – | ≥ 75% | – | ≥ 75% | ≥ 75%
11 | CC(C)c1ccccc1N1C(=O)CS/C1=N\N=C\C(=O)N(C)c1cnc(N(C)c2ccc(OC(F)(F)F)cc2)nc1 [Compound C-10, (2E)-2-[(Z)-[3-(2-isopropylphenyl)-4-oxo-thiazolidin-2-ylidene]hydrazono]-N-methyl-N-[2-[N-methyl-4-(trifluoromethoxy)anilino]pyrimidin-5-yl]acetamide] | – | – | ≥ 75% | – | ≥ 75% | ≥ 75%
12 | CC(C)c1ccccc1N1CC(=O)N(/N=C/C=C/c2cnc(N(C)c3ccc(OC(F)(F)F)cc3)nc2)C1=O [Compound C-14, 1-(2-isopropylphenyl)-3-[(E)-[(E)-3-[2-[N-methyl-4-(trifluoromethoxy)anilino]pyrimidin-5-yl]prop-2-enylidene]amino]imidazolidine-2,4-dione] | ≥ 75% | – | ≥ 75% | ≥ 75% | – | ≥ 75%
13 | CC(C=N/N=C1\SCC(=O)N1c1c(C)cccc1C)=Cc1cnc(Nc2ccc(OC(F)(F)F)cc2)nc1 [Compound C-4, (2Z)-3-(2,6-dimethylphenyl)-2-[(2-methyl-3-[2-[4-(trifluoromethoxy)anilino]pyrimidin-5-yl]prop-2-enylidene]hydrazono]thiazolidin-4-one] | – | ≥ 75% | ≥ 75% | ≥ 75% | ≥ 75% | ≥ 75%
14 | CC(/C=N/NC(=S)Nc1ccccc1C(C)C)Oc1cnc(N(C)c2ccc(OC(F)(F)F)cc2)nc1 (stereo not shown) [Compound C-20, 1-(2-isopropylphenyl)-3-[(E)-2-[2-[N-methyl-4-(trifluoromethoxy)anilino]pyrimidin-5-yl]oxypropylideneamino]thiourea] | – | – | – | – | – | ≥ 75%
15 | CC(/C=N/NC(=S)Nc1c(C)cccc1C)=C\c1cnc(Nc2ccc(OC(F)(F)F)cc2)nc1 [Compound C-2, 1-(2,6-dimethylphenyl)-3-[(E)-[(E)-2-methyl-3-[2-[4-(trifluoromethoxy)anilino]pyrimidin-5-yl]prop-2-enylidene]amino]thiourea] | – | ≥ 75% | ≥ 75% | ≥ 75% | ≥ 75% | ≥ 75%
16 | CC(C)c1ccccc1N1C(=O)CS/C1=N\N=C\COc1ccc(N(C)c2ccc(OC(F)(F)F)cc2)nn1 [Compound C-29, (2Z)-3-(2-isopropylphenyl)-2-[(E)-2-[6-[N-methyl-4-(trifluoromethoxy)anilino]pyridazin-3-yl]oxyethylidenehydrazono]thiazolidin-4-one] | – | – | – | – | – | ≥ 75%
